Source: ChEMBL document CHEMBL1144455, “A small molecule-kinase interaction map for clinical kinase inhibitors” (Nat Biotechnol, 2005)

Assays:
[1] = biological target: Tyrosine-protein kinase JAK2 (Homo sapiens, UniProt O60674)
[2] = biological target: Mitogen-activated protein kinase kinase kinase kinase 5 (Homo sapiens, UniProt Q9Y4K4)
[3] = biological target: T1, Membrane-associated tyrosine- and threonine-specific cdc2-inhibitory kinase (Homo sapiens, UniProt Q99640)
T1 sequence (Q99640 whole entry): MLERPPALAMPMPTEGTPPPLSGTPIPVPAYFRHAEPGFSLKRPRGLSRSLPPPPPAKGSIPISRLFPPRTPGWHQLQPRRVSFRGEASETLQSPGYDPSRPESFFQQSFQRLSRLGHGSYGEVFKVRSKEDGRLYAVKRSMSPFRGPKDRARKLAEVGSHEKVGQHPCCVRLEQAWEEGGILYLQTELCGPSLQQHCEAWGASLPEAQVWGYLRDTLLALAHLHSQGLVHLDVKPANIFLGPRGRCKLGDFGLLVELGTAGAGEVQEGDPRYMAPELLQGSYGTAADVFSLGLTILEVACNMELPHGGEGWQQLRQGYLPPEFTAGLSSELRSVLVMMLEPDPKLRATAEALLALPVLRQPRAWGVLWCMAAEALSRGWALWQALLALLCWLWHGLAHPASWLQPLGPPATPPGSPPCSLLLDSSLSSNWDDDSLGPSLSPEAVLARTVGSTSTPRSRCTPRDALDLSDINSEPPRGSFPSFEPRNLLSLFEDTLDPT

[4] = biological target: Tyrosine-protein kinase Fer (Homo sapiens, UniProt P16591)
Chain of Tyrosine-protein kinase Fer (P16591 whole entry): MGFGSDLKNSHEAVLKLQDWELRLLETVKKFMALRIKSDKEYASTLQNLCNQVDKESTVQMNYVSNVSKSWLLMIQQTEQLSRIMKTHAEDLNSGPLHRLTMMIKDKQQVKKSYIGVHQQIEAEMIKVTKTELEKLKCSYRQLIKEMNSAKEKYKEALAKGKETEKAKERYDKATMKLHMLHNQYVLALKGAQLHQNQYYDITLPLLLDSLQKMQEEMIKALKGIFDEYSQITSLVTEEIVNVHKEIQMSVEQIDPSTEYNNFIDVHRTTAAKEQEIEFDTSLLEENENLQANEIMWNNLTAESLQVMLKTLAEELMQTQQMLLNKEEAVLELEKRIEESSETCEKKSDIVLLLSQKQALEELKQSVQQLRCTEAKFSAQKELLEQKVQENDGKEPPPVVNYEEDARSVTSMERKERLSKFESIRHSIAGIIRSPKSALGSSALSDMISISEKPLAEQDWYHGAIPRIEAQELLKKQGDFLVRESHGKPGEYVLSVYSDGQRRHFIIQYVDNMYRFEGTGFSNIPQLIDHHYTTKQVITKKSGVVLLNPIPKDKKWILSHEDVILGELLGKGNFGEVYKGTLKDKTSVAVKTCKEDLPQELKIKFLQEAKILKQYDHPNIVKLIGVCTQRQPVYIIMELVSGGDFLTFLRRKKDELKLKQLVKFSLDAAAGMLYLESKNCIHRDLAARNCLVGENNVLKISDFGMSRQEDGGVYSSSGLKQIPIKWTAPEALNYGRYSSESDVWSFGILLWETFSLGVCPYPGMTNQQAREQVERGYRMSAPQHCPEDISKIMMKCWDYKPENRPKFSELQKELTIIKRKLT

[5] = biological target: Mitogen-activated protein kinase 10 (Homo sapiens, UniProt P53779)
Chain of Mitogen-activated protein kinase 10 (P53779 whole entry): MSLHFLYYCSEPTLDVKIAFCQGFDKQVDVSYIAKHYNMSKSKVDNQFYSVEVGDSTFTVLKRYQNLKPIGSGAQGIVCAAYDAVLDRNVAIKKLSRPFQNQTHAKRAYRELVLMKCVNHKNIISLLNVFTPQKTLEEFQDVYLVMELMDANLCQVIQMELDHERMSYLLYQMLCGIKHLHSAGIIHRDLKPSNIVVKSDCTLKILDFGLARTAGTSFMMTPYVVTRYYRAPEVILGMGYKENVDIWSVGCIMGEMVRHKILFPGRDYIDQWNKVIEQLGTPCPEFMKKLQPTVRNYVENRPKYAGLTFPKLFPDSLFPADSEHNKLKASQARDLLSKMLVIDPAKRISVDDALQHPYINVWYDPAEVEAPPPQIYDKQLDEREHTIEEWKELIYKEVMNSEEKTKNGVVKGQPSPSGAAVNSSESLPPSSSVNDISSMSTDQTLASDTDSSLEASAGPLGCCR

[6] = biological target: T2, Serine/threonine-protein kinase 36 (Homo sapiens, UniProt Q9NRP7)
T2 sequence (Q9NRP7 whole entry): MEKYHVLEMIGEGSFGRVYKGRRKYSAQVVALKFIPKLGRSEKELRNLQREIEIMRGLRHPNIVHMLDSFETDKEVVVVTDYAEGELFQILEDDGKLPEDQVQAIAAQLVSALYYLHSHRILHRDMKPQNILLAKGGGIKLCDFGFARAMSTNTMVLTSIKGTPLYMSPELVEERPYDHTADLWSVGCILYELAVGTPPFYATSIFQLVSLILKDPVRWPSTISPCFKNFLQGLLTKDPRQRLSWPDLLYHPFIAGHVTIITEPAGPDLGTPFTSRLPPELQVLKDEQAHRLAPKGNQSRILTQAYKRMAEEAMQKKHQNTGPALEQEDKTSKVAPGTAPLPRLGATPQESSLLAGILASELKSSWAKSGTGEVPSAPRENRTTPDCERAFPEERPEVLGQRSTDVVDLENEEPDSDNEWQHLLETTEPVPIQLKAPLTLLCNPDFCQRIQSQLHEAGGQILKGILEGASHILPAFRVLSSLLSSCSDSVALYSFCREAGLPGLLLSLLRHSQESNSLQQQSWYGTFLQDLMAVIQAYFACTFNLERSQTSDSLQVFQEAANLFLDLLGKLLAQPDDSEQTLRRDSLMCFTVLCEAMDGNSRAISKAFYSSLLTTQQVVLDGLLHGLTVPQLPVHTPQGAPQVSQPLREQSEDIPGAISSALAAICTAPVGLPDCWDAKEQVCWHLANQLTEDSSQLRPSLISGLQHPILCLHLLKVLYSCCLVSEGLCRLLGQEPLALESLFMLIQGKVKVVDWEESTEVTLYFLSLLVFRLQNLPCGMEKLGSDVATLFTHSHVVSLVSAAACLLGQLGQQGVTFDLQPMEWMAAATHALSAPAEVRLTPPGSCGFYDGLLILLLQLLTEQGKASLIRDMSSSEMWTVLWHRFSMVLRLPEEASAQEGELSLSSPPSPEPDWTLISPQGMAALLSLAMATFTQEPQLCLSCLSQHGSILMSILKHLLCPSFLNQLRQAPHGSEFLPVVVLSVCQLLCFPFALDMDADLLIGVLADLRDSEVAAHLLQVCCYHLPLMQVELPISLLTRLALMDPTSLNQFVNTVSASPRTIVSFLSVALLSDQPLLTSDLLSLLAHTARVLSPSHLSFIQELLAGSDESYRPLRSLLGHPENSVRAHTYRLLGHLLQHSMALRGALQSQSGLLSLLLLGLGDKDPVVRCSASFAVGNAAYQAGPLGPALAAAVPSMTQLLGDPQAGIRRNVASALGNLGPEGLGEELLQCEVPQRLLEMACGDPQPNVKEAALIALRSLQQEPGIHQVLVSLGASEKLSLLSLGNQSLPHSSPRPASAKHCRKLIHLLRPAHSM

[7] = biological target: T3, Aurora kinase C (Homo sapiens, UniProt Q9UQB9)
T3 sequence (Q9UQB9 whole entry): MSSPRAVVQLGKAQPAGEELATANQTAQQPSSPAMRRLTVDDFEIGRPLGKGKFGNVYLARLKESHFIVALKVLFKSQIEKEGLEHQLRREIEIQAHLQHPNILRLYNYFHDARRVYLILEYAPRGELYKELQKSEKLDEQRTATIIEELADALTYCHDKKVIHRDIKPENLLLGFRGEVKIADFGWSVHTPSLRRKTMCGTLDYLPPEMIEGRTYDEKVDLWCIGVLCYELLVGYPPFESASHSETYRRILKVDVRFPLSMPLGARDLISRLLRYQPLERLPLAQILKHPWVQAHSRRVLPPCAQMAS

[8] = biological target: BMP-2-inducible protein kinase (Homo sapiens, UniProt Q9NSY1)
Chain of BMP-2-inducible protein kinase (Q9NSY1 whole entry): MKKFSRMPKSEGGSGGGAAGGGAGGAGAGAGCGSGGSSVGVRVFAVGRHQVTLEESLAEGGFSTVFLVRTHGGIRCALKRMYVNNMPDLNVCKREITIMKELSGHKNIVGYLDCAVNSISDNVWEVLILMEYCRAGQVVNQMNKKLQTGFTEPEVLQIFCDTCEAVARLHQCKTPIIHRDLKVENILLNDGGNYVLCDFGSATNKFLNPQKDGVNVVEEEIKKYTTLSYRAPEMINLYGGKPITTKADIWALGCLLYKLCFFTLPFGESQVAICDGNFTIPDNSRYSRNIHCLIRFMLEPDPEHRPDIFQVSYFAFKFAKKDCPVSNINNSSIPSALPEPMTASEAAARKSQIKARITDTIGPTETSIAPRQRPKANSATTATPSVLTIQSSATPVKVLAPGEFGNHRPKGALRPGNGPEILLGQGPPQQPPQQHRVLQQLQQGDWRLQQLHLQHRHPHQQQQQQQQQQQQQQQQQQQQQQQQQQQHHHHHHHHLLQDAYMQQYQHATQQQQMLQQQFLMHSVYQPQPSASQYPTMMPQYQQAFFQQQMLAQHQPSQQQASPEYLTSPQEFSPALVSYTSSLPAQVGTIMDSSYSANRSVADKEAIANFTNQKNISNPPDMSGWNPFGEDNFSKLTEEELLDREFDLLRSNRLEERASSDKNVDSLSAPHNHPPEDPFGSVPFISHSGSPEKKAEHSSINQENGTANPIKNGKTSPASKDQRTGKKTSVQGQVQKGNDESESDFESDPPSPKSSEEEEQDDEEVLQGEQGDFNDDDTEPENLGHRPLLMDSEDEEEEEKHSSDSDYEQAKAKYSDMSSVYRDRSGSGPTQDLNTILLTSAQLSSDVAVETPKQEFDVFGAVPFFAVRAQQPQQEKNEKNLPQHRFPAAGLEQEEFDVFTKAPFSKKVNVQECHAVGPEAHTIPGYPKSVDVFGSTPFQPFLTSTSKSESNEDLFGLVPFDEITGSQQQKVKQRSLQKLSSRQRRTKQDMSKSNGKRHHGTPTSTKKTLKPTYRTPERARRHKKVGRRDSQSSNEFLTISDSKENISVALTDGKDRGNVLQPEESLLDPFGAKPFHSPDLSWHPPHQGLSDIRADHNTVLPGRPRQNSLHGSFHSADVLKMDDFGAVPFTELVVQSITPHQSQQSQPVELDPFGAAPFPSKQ

[9] = biological target: Dual specificity protein kinase CLK4 (Homo sapiens, UniProt Q9HAZ1)
Chain of Dual specificity protein kinase CLK4 (Q9HAZ1 whole entry): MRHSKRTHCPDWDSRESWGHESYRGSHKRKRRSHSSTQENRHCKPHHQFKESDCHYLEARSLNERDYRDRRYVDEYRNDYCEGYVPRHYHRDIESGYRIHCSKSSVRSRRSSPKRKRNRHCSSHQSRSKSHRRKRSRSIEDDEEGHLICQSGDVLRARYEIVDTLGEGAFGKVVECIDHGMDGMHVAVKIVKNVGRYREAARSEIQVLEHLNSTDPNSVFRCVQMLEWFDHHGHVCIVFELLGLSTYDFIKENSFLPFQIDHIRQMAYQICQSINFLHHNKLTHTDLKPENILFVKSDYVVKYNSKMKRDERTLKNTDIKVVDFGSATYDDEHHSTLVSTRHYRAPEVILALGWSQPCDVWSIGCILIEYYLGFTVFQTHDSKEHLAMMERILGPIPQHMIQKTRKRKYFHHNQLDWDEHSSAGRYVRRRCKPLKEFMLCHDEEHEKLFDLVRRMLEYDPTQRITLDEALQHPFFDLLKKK

[10] = biological target: Serine/threonine-protein kinase 16 (Homo sapiens, UniProt O75716)
Chain of Serine/threonine-protein kinase 16 (O75716 whole entry): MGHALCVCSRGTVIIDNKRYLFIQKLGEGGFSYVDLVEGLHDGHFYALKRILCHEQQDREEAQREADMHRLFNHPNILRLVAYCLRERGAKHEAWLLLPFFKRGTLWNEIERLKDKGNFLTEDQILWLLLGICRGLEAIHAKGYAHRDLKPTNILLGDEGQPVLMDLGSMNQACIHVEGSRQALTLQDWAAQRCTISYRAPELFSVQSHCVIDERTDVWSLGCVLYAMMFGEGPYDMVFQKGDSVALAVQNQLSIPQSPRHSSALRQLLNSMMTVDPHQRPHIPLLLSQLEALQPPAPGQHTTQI

Chain of Tyrosine-protein kinase JAK2 (O60674 whole entry): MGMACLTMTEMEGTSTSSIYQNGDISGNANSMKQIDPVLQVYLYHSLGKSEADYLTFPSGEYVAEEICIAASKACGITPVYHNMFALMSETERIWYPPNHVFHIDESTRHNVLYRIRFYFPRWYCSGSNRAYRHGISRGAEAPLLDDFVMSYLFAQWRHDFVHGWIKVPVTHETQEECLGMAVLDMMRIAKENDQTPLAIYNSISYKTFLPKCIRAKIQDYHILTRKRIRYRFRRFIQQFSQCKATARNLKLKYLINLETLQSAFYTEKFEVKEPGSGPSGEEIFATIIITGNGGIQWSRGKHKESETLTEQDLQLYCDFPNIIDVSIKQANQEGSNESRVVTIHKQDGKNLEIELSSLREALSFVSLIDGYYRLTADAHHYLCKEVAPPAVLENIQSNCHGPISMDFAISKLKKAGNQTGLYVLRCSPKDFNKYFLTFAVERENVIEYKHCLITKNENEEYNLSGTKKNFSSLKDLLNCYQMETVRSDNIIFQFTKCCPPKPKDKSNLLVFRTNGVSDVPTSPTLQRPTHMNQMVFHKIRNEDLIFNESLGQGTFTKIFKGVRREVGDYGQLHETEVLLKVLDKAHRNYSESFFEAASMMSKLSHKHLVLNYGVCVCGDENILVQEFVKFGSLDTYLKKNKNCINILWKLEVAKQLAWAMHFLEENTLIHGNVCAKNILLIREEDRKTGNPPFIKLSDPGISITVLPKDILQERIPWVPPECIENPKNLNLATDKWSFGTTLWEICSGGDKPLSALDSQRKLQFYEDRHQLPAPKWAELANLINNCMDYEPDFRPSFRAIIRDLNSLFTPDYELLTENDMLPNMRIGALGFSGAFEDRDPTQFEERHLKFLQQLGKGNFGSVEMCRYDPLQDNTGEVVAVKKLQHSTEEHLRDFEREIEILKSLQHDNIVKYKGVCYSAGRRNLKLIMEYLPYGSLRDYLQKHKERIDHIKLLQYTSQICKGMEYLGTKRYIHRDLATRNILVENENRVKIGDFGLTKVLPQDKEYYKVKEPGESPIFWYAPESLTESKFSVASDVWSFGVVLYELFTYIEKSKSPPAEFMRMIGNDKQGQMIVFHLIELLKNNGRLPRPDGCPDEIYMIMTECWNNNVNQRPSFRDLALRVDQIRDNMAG

CCOc1cc2ncc(C#N)c(Nc3ccc(F)c(Cl)c3)c2cc1NC(=O)/C=C/CN(C)C [PELITINIB]
Kd [1]: 2000 nM | Kd [2]: 3.7 nM | Kd [3]: 930 nM | Kd [4]: 250 nM

Oc1ccc(-c2nc(-c3ccc(F)cc3)c(-c3ccncc3)[nH]2)cc1 [SB-202190]
Kd [5]: 51 nM | Kd [6]: 3800 nM

Oc1c2ccccc2c2c3c(cccc13)N=N2 [SP-600125]
Kd [7]: 5300 nM | Kd [8]: 25 nM | Kd [9]: 260 nM | Kd [10]: 510 nM
